# Key:
# ducksalad = test: Test B flooded paddy test; format: in vivo, Heteranthera limosa; conditions: Flood, scale of 0 to 100 where 0 is no effect and 100 is complete control
# In short: (§1)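 Plants grown to 2-leaf stage; pots flooded 3 cm above soil and compound applied directly into paddy water, depth held throughout. Visual rating against untreated controls after 13 to 15 days in greenhouse, 0 (no effect) to 100 (complete control).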
# oilseed rape = test: Test C pre-/postemergence herbicide test; format: in vivo, Brassica napus; conditions: Preemergence
# In short: (§2)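 Response scores range from 0, meaning no effect, to 100, meaning complete control, assigned visually by comparison with controls roughly two weeks (13 to 15 days) after spraying. Applications were made preemergence to seeded loam–sand soil and postemergence to 1- to 4-leaf plants.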
# soybean = test: Test C pre-/postemergence herbicide test; format: in vivo, Glycine max; conditions: Preemergence
# In short: as §2
# foxtail, giant = test: Test C pre-/postemergence herbicide test; format: in vivo, Setaria faberii; conditions: Preemergence
# In short: as §2
# barnyardgrass [1] = test: Test A pre-/postemergence herbicide test; format: in vivo, Echinochloa crus-galli
# In short: (§3)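 Scoring was visual, relative to untreated controls, on a 0–100 scale after about 10 greenhouse days. Preemergence treatment used a directed soil spray over seeded loam/sand; postemergence treatment targeted one- to two-leaf plants of 2–10 cm.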
# corn [2] = test: Test A pre-/postemergence herbicide test; format: in vivo, Zea mays
# In short: as §3
# barnyardgrass [3] = test: Test C pre-/postemergence herbicide test; format: in vivo, Echinochloa crus-galli; conditions: Preemergence
# In short: as §2
# nutsedge, yellow = test: Test C pre-/postemergence herbicide test; format: in vivo, Cyperus esculentus; conditions: Preemergence
# In short: as §2
# barnyardgrass [4] = test: Test B flooded paddy test; format: in vivo, Echinochloa crus-galli; conditions: Flood, scale of 0 to 100 where 0 is no effect and 100 is complete control
# In short: as §1
# rice = test: Test B flooded paddy test; format: in vivo, Oryza sativa; conditions: Flood, scale of 0 to 100 where 0 is no effect and 100 is complete control
# In short: as §1
# corn [5] = test: Test C pre-/postemergence herbicide test; format: in vivo, Zea mays; conditions: Preemergence
# In short: as §2
# pigweed = test: Test A pre-/postemergence herbicide test; format: in vivo, Amaranthus retroflexus
# In short: as §3
# [6] = 31 g ai/ha, scale 0 to 100, 0 is no effect and 100 is complete control
# [7] = 62 g ai/ha, scale 0 to 100 (0 no effect, 100 complete control)
# [8] = 125 g ai/ha, scale 0 to 100 (0 no effect, 100 complete control)
# [9] = Postemergence, 125 g ai/ha, 0 to 100 scale, 0 is no effect, 100 is complete control
# [10] = Postemergence, 500 g ai/ha, 0 to 100 scale (0 no effect, 100 complete control)
# [11] = Preemergence, 125 g ai/ha, 0 to 100 scale where 0 is no effect and 100 is complete control
# [12] = preemergence, 500 g ai/ha, 0 to 100 scale, 0 is no effect and 100 is complete control
smiles,measurement,setting,value
O=C1NCC(c2cccc(C(F)(F)F)c2)C1C(=O)Nc1cccc(F)c1F (stereo not drawn) [Compound 241],"Plant response rating, Ducksalad",ducksalad; 250 g ai/ha,100
same,"Plant response rating, Ducksalad",ducksalad; 1000 g ai/ha,100
same,Oilseed Rape plant response rating,oilseed rape; [6],0
same,Oilseed Rape plant response rating,oilseed rape; [7],0
same,"Plant response rating, Oilseed Rape",oilseed rape; [8],70
same,"Plant response rating (scale of 0 to 100), Oilseed Rape",oilseed rape; 250 g ai/ha,85
same,Soybean plant response rating,soybean; [6],0
same,Soybean plant response rating,soybean; [7],0
same,"Plant response rating, Soybean",soybean; [8],0
same,"Plant response rating (scale of 0 to 100), Soybean",soybean; 250 g ai/ha,0
same,"Foxtail, Giant plant response rating","foxtail, giant; [6]",90
same,"Foxtail, Giant plant response rating","foxtail, giant; [7]",95
same,"Plant response rating, Foxtail, Giant","foxtail, giant; [8]",95
same,"Plant response rating (scale of 0 to 100), Foxtail, Giant","foxtail, giant; 250 g ai/ha",95
same,"Plant response rating, Barnyardgrass",barnyardgrass [1]; [9],80
same,"Plant response rating, Barnyardgrass",barnyardgrass [1]; [10],90
same,"Plant response rating, Barnyardgrass",barnyardgrass [1]; [11],80
same,"Plant response rating, Barnyardgrass",barnyardgrass [1]; [12],90
same,"Plant response rating, Corn",corn [2]; [9],50
same,"Plant response rating, Corn",corn [2]; [10],80
same,"Plant response rating, Corn",corn [2]; [11],20
same,"Plant response rating, Corn",corn [2]; [12],50
same,Barnyardgrass plant response rating,barnyardgrass [3]; [6],90
same,"Plant response rating, Barnyardgrass","barnyardgrass [3]; 62 g ai/ha, scale 0 to 100",95
same,"Plant response rating, Barnyardgrass",barnyardgrass [3]; [8],95
same,"Plant response rating (scale of 0 to 100; 0 is no effect, 100 is complete control), Barnyardgrass",barnyardgrass [3]; 250 g ai/ha,95
same,"Nutsedge, Yellow plant response rating","nutsedge, yellow; [6]",0
same,"Nutsedge, Yellow plant response rating","nutsedge, yellow; [7]",0
same,"Plant response rating, Nutsedge, Yellow","nutsedge, yellow; [8]",0
same,"Plant response rating (scale of 0 to 100), Nutsedge, Yellow","nutsedge, yellow; 250 g ai/ha",0
same,"Plant response rating, Barnyardgrass",barnyardgrass [4]; 250 g ai/ha,55
same,"Plant response rating, Barnyardgrass",barnyardgrass [4]; 1000 g ai/ha,75
same,"Plant response rating, Rice",rice; 250 g ai/ha,0
same,"Plant response rating, Rice",rice; 1000 g ai/ha,10
same,Corn plant response rating,corn [5]; [6],85
same,Corn plant response rating,corn [5]; [7],65
same,"Plant response rating, Corn",corn [5]; [8],80
same,"Plant response rating (scale of 0 to 100), Corn",corn [5]; 250 g ai/ha,90
same,"Plant response rating, Pigweed",pigweed; [9],0
same,"Plant response rating, Pigweed",pigweed; [10],20
same,"Plant response rating, Pigweed",pigweed; [11],0
same,"Plant response rating, Pigweed",pigweed; [12],30
